Reference: the kinase profiling compilation of Christmann-Franck et al. (2016)
Values joined by “and” are separate entries in the source; they are usually repeats but may differ in a detail not shown here. Equal values may be shown once.

Experiments:
Test in all cases: radiometric filter-binding kinase assay, Kinase HotSpot
Conditions in all cases: compound 0.5 µM; ATP 10 µM
CDK5 CDK5R1 p25 (human) = CDK5 CDK5R1 p25 (human) (UniProt Q00535+Q15078)
CAMKK1 (human) = CAMKK1 (human) (UniProt Q8N5S9)
MYLK2 (human) = MYLK2 (human) (UniProt Q9H1R3)
PHKG2 (human) = PHKG2 (human) (UniProt P15735)
DAPK3 (human) = DAPK3 (human) (UniProt O43293)
DMPK (human) = DMPK (human) (UniProt Q09013)
MAP2K1 (human) = MAP2K1 (human) (UniProt Q02750)
ULK2 (human) = ULK2 (human) (UniProt Q8IYT8)
BMX (human) = BMX (human) (UniProt P51813)
MAP2K2 (human) = MAP2K2 (human) (UniProt P36507)
LIMK1 (human) = LIMK1 (human) (UniProt P53667)
LCK (human) = LCK (human) (UniProt P06239)
AKT3 (human) = AKT3 (human) (UniProt Q9Y243)
STK24 (human) = STK24 (human) (UniProt Q9Y6E0)
CDK1 CCNB1 (human) = CDK1 CCNB1 (human) (UniProt P06493+P14635)
ACVR1B (human) = ACVR1B (human) (UniProt P36896)
PRKD3 (human) = PRKD3 (human) (UniProt O94806)
GSG2 (human) = GSG2 (human) (UniProt Q8TF76)
BRSK1 (human) = BRSK1 (human) (UniProt Q8TDC3)
FLT3 (human) = FLT3 (human) (UniProt P36888)
MAPKAPK3 (human) = MAPKAPK3 (human) (UniProt Q16644)
INSR (human) = INSR (human) (UniProt P06213)
PIM3 (human) = PIM3 (human) (UniProt Q86V86)
MAP3K9 (human) = MAP3K9 (human) (UniProt P80192)
MARK3 (human) = MARK3 (human) (UniProt P27448)
EPHB2 (human) = EPHB2 (human) (UniProt P29323)
MAPK13 (human) = MAPK13 (human) (UniProt O15264)
RPS6KA3 KD1 KD2 (human) = RPS6KA3 KD1 KD2 (human) (UniProt P51812)
ADRBK2 (human) = ADRBK2 (human) (UniProt P35626)
YES1 (human) = YES1 (human) (UniProt P07947)
AXL (human) = AXL (human) (UniProt P30530)
RPS6KA5 KD2 (human) = RPS6KA5 KD2 (human) (UniProt O75582)
PBK (human) = PBK (human) (UniProt Q96KB5)
LYN (human) = LYN (human) (UniProt P07948)
LRRK2 (human) = LRRK2 (human) (UniProt Q5S007)
PRKD1 (human) = PRKD1 (human) (UniProt Q15139)
NLK (human) = NLK (human) (UniProt Q9UBE8)
CSF1R (human) = CSF1R (human) (UniProt P07333)
DYRK4 (human) = DYRK4 (human) (UniProt Q9NR20)
EPHA4 (human) = EPHA4 (human) (UniProt P54764)
PAK7 (human) = PAK7 (human) (UniProt Q9P286)
EPHB1 (human) = EPHB1 (human) (UniProt P54762)

Sequence of PRKD3 (human) (O94806 whole entry, looked up): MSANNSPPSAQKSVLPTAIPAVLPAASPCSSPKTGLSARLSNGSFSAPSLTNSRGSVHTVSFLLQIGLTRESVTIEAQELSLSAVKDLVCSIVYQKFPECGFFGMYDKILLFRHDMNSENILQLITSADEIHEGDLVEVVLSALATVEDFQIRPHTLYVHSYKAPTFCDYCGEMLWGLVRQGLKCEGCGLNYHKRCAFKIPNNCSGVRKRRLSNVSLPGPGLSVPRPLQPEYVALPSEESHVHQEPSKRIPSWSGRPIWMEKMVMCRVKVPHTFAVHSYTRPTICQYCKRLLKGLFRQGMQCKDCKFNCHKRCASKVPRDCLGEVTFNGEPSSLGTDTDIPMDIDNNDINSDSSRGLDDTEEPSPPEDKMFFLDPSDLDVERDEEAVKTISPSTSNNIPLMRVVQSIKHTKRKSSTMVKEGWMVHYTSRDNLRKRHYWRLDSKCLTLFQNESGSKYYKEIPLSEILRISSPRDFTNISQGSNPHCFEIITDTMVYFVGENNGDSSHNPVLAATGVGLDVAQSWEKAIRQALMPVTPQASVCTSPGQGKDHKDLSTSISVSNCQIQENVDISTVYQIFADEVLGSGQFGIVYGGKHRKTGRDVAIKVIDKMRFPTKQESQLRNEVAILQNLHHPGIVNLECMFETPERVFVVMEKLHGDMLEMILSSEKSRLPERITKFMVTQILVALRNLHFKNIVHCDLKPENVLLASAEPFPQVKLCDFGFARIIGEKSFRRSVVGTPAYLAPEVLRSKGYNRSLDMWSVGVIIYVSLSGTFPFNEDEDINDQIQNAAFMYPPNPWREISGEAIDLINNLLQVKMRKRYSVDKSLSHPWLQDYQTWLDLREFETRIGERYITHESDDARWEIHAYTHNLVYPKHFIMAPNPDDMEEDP
Sequence of DMPK (human) (Q09013 whole entry, looked up): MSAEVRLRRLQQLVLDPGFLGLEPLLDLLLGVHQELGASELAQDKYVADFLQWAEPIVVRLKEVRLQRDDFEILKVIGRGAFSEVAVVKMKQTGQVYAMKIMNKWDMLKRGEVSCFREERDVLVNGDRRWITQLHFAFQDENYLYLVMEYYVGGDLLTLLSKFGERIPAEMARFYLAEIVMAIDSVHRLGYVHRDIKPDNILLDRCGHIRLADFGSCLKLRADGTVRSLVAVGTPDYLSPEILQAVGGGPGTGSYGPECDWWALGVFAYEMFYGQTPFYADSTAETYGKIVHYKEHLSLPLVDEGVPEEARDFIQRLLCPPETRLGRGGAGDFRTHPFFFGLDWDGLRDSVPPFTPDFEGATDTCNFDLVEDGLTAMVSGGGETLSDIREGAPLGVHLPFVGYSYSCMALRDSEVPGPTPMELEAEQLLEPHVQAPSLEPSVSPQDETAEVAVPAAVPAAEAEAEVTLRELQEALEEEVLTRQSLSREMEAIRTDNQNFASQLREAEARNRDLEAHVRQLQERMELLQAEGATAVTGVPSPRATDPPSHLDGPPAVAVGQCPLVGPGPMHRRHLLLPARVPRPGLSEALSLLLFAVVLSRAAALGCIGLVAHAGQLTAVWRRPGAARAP
Sequence of AXL (human) (P30530 whole entry, looked up): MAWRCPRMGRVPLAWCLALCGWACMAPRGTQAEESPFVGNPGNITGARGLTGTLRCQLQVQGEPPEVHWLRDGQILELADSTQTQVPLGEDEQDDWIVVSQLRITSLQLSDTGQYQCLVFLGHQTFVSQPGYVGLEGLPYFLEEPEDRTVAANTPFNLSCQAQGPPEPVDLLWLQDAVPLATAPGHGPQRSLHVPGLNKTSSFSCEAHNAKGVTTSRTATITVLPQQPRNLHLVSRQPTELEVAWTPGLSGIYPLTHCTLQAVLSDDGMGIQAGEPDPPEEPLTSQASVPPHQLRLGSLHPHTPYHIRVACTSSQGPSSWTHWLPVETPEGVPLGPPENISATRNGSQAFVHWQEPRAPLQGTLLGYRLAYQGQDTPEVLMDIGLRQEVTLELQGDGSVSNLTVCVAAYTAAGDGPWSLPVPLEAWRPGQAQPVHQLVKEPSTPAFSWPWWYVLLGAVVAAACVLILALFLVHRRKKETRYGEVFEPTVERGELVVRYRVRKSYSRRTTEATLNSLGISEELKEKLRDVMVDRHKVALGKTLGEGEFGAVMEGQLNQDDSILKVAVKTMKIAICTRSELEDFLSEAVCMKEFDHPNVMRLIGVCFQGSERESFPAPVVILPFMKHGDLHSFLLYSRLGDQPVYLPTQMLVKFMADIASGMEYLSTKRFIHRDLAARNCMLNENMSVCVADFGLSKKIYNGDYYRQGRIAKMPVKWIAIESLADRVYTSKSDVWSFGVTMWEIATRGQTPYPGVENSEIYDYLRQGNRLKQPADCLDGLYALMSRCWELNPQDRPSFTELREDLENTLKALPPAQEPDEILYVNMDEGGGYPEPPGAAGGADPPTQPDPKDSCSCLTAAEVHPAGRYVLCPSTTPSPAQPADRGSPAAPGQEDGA
Sequence of ACVR1B (human) (P36896 whole entry, looked up): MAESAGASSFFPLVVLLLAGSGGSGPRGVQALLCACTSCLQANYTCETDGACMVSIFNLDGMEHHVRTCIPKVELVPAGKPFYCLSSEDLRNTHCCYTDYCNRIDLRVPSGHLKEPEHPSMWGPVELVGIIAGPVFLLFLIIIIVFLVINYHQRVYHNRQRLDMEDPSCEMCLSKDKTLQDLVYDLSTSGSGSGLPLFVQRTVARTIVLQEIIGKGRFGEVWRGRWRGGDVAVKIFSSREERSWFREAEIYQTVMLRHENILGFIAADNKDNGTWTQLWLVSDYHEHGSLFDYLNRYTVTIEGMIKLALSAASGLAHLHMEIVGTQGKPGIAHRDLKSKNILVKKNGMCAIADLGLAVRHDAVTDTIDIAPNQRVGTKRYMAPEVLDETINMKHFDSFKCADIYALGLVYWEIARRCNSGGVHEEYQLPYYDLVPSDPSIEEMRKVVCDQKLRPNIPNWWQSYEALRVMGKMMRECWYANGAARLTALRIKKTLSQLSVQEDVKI
Sequence of PHKG2 (human) (P15735 whole entry, looked up): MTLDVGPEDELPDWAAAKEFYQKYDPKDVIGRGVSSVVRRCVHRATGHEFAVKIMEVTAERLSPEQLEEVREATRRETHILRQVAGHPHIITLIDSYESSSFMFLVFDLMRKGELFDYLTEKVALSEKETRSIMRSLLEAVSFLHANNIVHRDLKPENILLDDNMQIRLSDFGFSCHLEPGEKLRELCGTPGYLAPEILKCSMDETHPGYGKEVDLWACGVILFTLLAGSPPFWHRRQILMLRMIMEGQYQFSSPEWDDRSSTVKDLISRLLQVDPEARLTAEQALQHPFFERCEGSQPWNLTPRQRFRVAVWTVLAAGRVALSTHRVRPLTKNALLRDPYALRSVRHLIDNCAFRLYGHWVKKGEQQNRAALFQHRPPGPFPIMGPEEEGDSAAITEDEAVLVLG
Sequence of FLT3 (human) (P36888 whole entry, looked up): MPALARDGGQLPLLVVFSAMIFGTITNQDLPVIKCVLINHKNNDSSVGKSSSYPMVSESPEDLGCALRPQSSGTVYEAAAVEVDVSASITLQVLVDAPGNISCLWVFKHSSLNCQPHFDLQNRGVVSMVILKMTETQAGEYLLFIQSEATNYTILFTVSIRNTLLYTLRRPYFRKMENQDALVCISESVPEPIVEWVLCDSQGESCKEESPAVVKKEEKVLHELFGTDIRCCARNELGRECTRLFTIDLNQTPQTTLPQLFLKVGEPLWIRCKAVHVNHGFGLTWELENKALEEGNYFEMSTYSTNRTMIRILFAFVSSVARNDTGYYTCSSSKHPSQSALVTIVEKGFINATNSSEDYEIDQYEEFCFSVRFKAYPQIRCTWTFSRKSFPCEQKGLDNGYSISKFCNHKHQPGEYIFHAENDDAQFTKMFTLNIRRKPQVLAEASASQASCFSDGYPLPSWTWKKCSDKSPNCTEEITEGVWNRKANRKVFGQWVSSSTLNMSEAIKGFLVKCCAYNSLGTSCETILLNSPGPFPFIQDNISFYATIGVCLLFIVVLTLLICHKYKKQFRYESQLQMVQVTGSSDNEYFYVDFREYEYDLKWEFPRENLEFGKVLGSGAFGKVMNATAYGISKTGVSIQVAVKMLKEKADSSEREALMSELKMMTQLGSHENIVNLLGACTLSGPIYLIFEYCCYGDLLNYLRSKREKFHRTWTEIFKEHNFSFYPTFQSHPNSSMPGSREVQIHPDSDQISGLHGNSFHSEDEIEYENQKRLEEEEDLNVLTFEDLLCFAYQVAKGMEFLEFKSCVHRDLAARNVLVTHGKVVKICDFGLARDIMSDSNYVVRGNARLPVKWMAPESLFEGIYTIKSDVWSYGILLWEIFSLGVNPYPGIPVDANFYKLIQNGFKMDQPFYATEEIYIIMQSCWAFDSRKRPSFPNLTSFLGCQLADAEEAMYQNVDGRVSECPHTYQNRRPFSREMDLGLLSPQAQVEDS
Sequence of DYRK4 (human) (Q9NR20 whole entry, looked up): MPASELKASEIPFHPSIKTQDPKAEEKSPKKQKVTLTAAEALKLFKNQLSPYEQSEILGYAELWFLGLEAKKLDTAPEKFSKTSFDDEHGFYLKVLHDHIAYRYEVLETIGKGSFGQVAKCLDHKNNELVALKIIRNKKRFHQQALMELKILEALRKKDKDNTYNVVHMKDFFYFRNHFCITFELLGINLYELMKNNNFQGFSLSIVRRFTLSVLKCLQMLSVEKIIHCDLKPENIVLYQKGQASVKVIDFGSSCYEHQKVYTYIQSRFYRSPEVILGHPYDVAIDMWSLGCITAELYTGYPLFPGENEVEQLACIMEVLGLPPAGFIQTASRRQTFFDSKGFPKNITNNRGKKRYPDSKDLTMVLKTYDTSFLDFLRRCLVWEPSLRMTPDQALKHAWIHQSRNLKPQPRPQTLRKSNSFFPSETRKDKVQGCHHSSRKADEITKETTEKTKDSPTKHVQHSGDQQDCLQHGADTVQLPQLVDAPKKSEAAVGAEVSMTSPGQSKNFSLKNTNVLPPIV

## Nc1n[nH]c2nnc(-c3c(-c4ccccc4)nn4ccccc34)cc12
CDK5 CDK5R1 p25 (human)
  residual activity: 101%
CAMKK1 (human)
  residual activity: 125%
MYLK2 (human)
  residual activity: 101%
PHKG2 (human)
  residual activity: 82.6%
DAPK3 (human)
  residual activity: 102%
DMPK (human)
  residual activity: 103%
MAP2K1 (human)
  residual activity: 94.3%
ULK2 (human)
  residual activity: 100%
BMX (human)
  residual activity: 84.4%
MAP2K2 (human)
  residual activity: 99.4%
LIMK1 (human)
  residual activity: 98.2%
LCK (human)
  residual activity: 95.1%
AKT3 (human)
  residual activity: 97.5%
STK24 (human)
  residual activity: 74.6%
CDK1 CCNB1 (human)
  residual activity: 90.2%
ACVR1B (human)
  residual activity: 107%
PRKD3 (human)
  residual activity: 58.9%
GSG2 (human)
  residual activity: 97.1%
BRSK1 (human)
  residual activity: 98.6%
FLT3 (human)
  residual activity: 63.5%
MAPKAPK3 (human)
  residual activity: 103%
INSR (human)
  residual activity: 78.3%
PIM3 (human)
  residual activity: 100%
MAP3K9 (human)
  residual activity: 99.9%
MARK3 (human)
  residual activity: 99.3%
EPHB2 (human)
  residual activity: 93.1%
MAPK13 (human)
  residual activity: 101%
RPS6KA3 KD1 KD2 (human)
  residual activity: 98.7%
ADRBK2 (human)
  residual activity: 101%
YES1 (human)
  residual activity: 91.1%
AXL (human)
  residual activity: 99.1%
RPS6KA5 KD2 (human)
  residual activity: 101%
PBK (human)
  residual activity: 95%
LYN (human)
  residual activity: 94.9% and 97.1%
LRRK2 (human)
  residual activity: 91.8%
PRKD1 (human)
  residual activity: 68.4%
NLK (human)
  residual activity: 102%
CSF1R (human)
  residual activity: 96.8%
DYRK4 (human)
  residual activity: 95.3%
EPHA4 (human)
  residual activity: 85.9%
PAK7 (human)
  residual activity: 98.2%
EPHB1 (human)
  residual activity: 98.6%

## COc1ccc(-c2cnc3c(-c4ccsc4)cnn3c2)cc1
CDK5 CDK5R1 p25 (human)
  residual activity: 73%
CAMKK1 (human)
  residual activity: 79.2%
MYLK2 (human)
  residual activity: 75.6%
PHKG2 (human)
  residual activity: 92.3%
DAPK3 (human)
  residual activity: 81.9%
DMPK (human)
  residual activity: 100%
MAP2K1 (human)
  residual activity: 98.2%
ULK2 (human)
  residual activity: 103%
BMX (human)
  residual activity: 90.6%
MAP2K2 (human)
  residual activity: 95.5%
LIMK1 (human)
  residual activity: 71.2%
LCK (human)
  residual activity: 81.6%
AKT3 (human)
  residual activity: 95.4%
STK24 (human)
  residual activity: 95.5%
CDK1 CCNB1 (human)
  residual activity: 87.2%
ACVR1B (human)
  residual activity: 100%
PRKD3 (human)
  residual activity: 100%
GSG2 (human)
  residual activity: 77.2%
BRSK1 (human)
  residual activity: 81.5%
FLT3 (human)
  residual activity: 11.1%
MAPKAPK3 (human)
  residual activity: 97.5%
INSR (human)
  residual activity: 92.5%
PIM3 (human)
  residual activity: 100%
MAP3K9 (human)
  residual activity: 65.6%
MARK3 (human)
  residual activity: 88.8%
EPHB2 (human)
  residual activity: 80.5%
MAPK13 (human)
  residual activity: 93.5%
RPS6KA3 KD1 KD2 (human)
  residual activity: 83.6%
ADRBK2 (human)
  residual activity: 97.8%
YES1 (human)
  residual activity: 67.7%
AXL (human)
  residual activity: 96.7%
RPS6KA5 KD2 (human)
  residual activity: 90.3%
PBK (human)
  residual activity: 91.6%
LYN (human)
  residual activity: 81.8% and 92.7%
LRRK2 (human)
  residual activity: 68.1%
PRKD1 (human)
  residual activity: 95.1%
NLK (human)
  residual activity: 74.5%
CSF1R (human)
  residual activity: 53.6%
DYRK4 (human)
  residual activity: 129%
EPHA4 (human)
  residual activity: 87.6%
PAK7 (human)
  residual activity: 78.1%
EPHB1 (human)
  residual activity: 83.1%

## CSc1nc(-c2ccc(F)cc2)c(-c2ccnc(NC(C)c3ccccc3)c2)[nH]1 (stereo unspecified)
CDK5 CDK5R1 p25 (human)
  residual activity: 76.1%
CAMKK1 (human)
  residual activity: 104%
MYLK2 (human)
  residual activity: 102%
PHKG2 (human)
  residual activity: 125%
DAPK3 (human)
  residual activity: 94.3%
DMPK (human)
  residual activity: 80%
MAP2K1 (human)
  residual activity: 93.9%
ULK2 (human)
  residual activity: 94.1%
BMX (human)
  residual activity: 102%
MAP2K2 (human)
  residual activity: 78.6%
LIMK1 (human)
  residual activity: 103%
LCK (human)
  residual activity: 102%
AKT3 (human)
  residual activity: 91.5%
STK24 (human)
  residual activity: 113%
CDK1 CCNB1 (human)
  residual activity: 106%
ACVR1B (human)
  residual activity: 95.9%
PRKD3 (human)
  residual activity: 82%
GSG2 (human)
  residual activity: 96.3%
BRSK1 (human)
  residual activity: 84.6%
FLT3 (human)
  residual activity: 92.8%
MAPKAPK3 (human)
  residual activity: 107%
INSR (human)
  residual activity: 100%
PIM3 (human)
  residual activity: 95.5%
MAP3K9 (human)
  residual activity: 101%
MARK3 (human)
  residual activity: 100%
EPHB2 (human)
  residual activity: 85.4%
MAPK13 (human)
  residual activity: 93.9%
RPS6KA3 KD1 KD2 (human)
  residual activity: 91%
ADRBK2 (human)
  residual activity: 96.4%
YES1 (human)
  residual activity: 91.8%
AXL (human)
  residual activity: 109%
RPS6KA5 KD2 (human)
  residual activity: 97.3%
PBK (human)
  residual activity: 109%
LYN (human)
  residual activity: 89.4% and 98.5%
LRRK2 (human)
  residual activity: 100%
PRKD1 (human)
  residual activity: 90.1%
NLK (human)
  residual activity: 30.7%
CSF1R (human)
  residual activity: 104%
DYRK4 (human)
  residual activity: 91.4%
EPHA4 (human)
  residual activity: 93.1%
PAK7 (human)
  residual activity: 85.3%
EPHB1 (human)
  residual activity: 96.4%
